Values of other authors as cited in article PMC10747602, “Dose Response, Dosimetric, and Metabolic Evaluations of Replacement PFAS Perfluoro-(2,5,8-trimethyl-3,6,9-trioxadodecanoic) Acid (HFPO-TeA)” (Toxics, 2023).
Read-outs that look alike come from different tables or passages of the source.

Assays:
[1] = male mice, 2.5 mg/kg/day orally for 28 days; cited from earlier work
[2] = set-up: method as in PMID 18661093; details: male rats, 5 mg/kg/day orally for 28 days; cited from earlier work
[3] = set-up: method as in PMID 21948869, PMID 36309054; details: cited from earlier work

For `O=C(O)C(F)(F)C(F)(F)C(F)(F)C(F)(F)C(F)(F)C(F)(F)C(F)(F)F` [PFOA, perfluorooctanoic acid], the Kp [1] is given as 1.54, the Kp [2] is given as 5.88 and the “underestimation of Css values by previous IVIVE evaluations” value [3] is given as > 100 ×.
